test: recombinant UMI read abundance after kanamycin selection (control-corrected) (log10(CPM+1)); higher = more efficient recombination; extreme values may be limits of the assay; sequences stand for … in AGTGCAGAGAAAATCGGCCAGTTTTCTCTGCCTGCAGTCCGCATGCCGTGGGACCCCTTGGGTTCTAACCTGTTGCCTAGATTTATGCAGCGGACTGCCTTTCTCCCAAAGTGATAAACCGG…AGGTTGGTTTCACT; site = the 11-nt donor
How it was run: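 Under IPTG (0.07 mM) plus kanamycin, or without selection, Escherichia coli carrying a UMI-tagged donor and donor-binding-loop pair library and a target plasmid for the IS621 bridge recombinase were plated in two replicates. Recombinant UMIs were PCR-amplified across the donor–target junction and sequenced. Counts were converted to CPM, averaged over replicates, scaled by control-derived factors and reported as log10(CPM+1).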
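Also: IS621 bridge recombinase in Escherichia coli cells against a fixed T5 target plasmid.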

Row | Sequence | recombinant UMI read abundance (log10)
1 | ATTGAAACATGGACCGGTTTTCCCGGTAATCCGTATTTGGT (site ATTGAGACTAC) | 0.484
2 | CCCACGCCATGGACCGGTTTTCCCGGTAATCCGTATTTGTA (site GCCACGCCTTA) | 0.00718
3 | CGTGGAACATGGACCGGTTTTCCCGGTAATCCGTATTTGTT (site CGTGGTACTAA) | 0
4 | AGGAGGACATGGACCGGTTTTCCCGGTAATCCGTATTTGCC (site AGGAGGACTGG) | 1.68
5 | ACAATATCATGGACCGGTTTTCCCGGTAATCCGTATTTGGA (site ACAATATCTTC) | 2.07
6 | TCATACTCATGGACCGGTTTTCCCGGTAATCCGTATTTGCG (site TCATACTCTGG) | 0.0107
7 | AATGTGCCATGGACCGGTTTTCCCGGTAATCCGTATTTGAC (site AATGTGCCTGT) | 0
8 | TTAGCTGCATGGACCGGTTTTCCCGGTAATCCGTATTTGTG (site TTAGCTGCTTA) | 0.192
9 | ACAGCATCATGGACCGGTTTTCCCGGTAATCCGTATTTGCA (site ACAGTATCTTG) | 1.73
10 | ATCTTTACATGGACCGGTTTTCCCGGTAATCCGTATTTGAC (site ATCTTTACTGT) | 0.661
11 | GGGGCTCCATGGACCGGTTTTCCCGGTAATCCGTATTTGCA (site GGGGCTCCTTG) | 1.13
12 | TCAAGAACATGGACCGGTTTTCCCGGTAATCCGTATTTGGG (site TCAAGAACTCC) | 0.301
13 | CAAGCAGCATGGACCGGTTTTCCCGGTAATCCGTATTTGCT (site CTAGCAGCTAG) | 0.616
14 | CAATCAGCATGGACCGGTTTTCCCGGTAATCCGTATTTGCT (site CAAGCAGCTAG) | 0.0241
15 | CATTGCACATGGACCGGTTTTCCCGGTAATCCGTATTTGTT (site CATTGCACTAA) | 0.487
16 | ACGTTTACATGGACCGGTTTTCCCGGTAATCCGTATTTGCT (site ACGTTTACTAG) | 2.06
17 | TAGAATACATGGACCGGTTTTCCCGGTAATCCGTATTTGCG (site TAGAATACTCG) | 2.06
18 | CCTAAGACATGGACCGGTTTTCCCGGTAATCCGTATTTGGC (site CCTAATACTGC) | 0
19 | AGGAGGACATGGACCGGTTTTCCCGGTAATCCGTATTTGAA (site AGGAAGACTTG) | 0
20 | TAGTGAGCATGGACCGGTTTTCCCGGTAATCCGTATTTGGG (site TACTGAGCTCC) | 0
21 | GGTCCAACATGGACCGGTTTTCCCGGTAATCCGTATTTGAA (site GGTCCAACTTC) | 0.00549
22 | CCTTGAACATGGACCGGTTTTCCCGGTAATCCGTATTTGCT (site CCTTGAACTAG) | 0
23 | GATTCATCATGGACCGGTTTTCCCGGTAATCCGTATTTGCG (site GATTCATCTCG) | 1.2
24 | CTGGGAACATGGACCGGTTTTCCCGGTAATCCGTATTTGCA (site CTGGTAACTTG) | 0.262
25 | AGCTCAGCATGGACCGGTTTTCCCGGTAATCCGTATTTGGT (site AGCTCAGCTAC) | 1.27

Row | Sequence | recombinant UMI read abundance (log10)
26 | GCACTGCCATGGACCGGTTTTCCCGGTAATCCGTATTTGCT (site GCACTGCCTAG) | 1.41
27 | CGGGAACCATGGACCGGTTTTCCCGGTAATCCGTATTTGAT (site GGGGAACCTAT) | 0
28 | TAGAAAACATGGACCGGTTTTCCCGGTAATCCGTATTTGCA (site TAGAACACTTG) | 1.57
29 | ACGAAGACATGGACCGGTTTTCCCGGTAATCCGTATTTGTA (site ACGAAGACTTA) | 2.82
30 | CTAGTATCATGGACCGGTTTTCCCGGTAATCCGTATTTGAC (site CAAGAATCTGT) | 0
31 | GCCAGGCCATGGACCGGTTTTCCCGGTAATCCGTATTTGTA (site GCCATGCCTTA) | 0.00384
32 | AAGCACGCATGGACCGGTTTTCCCGGTAATCCGTATTTGGT (site AAGCACGCTCC) | 0.315
33 | AGCTCAGCATGGACCGGTTTTCCCGGTAATCCGTATTTGGG (site AGCTCAGCTGC) | 0
34 | TAAGCGCCATGGACCGGTTTTCCCGGTAATCCGTATTTGTG (site AAAGCGCCTCA) | 0.0246
35 | AACCGACCATGGACCGGTTTTCCCGGTAATCCGTATTTGAT (site AACCGACCTAT) | 0.0205
36 | GCCTTCTCATGGACCGGTTTTCCCGGTAATCCGTATTTGGG (site TCCTTCTCTCC) | 0.0193
37 | GATAGGTCATGGACCGGTTTTCCCGGTAATCCGTATTTGGA (site GATAGGTCTTC) | 1.15
38 | GATACGACATGGACCGGTTTTCCCGGTAATCCGTATTTGTT (site GATACGACTAA) | 0.259
39 | ACTGTATCATGGACCGGTTTTCCCGGTAATCCGTATTTGCA (site ACTGTATCTTG) | 2.57
40 | ATAGCATCATGGACCGGTTTTCCCGGTAATCCGTATTTGAC (site CTAGTATCTGT) | 1.8
41 | AGAGTACCATGGACCGGTTTTCCCGGTAATCCGTATTTGCA (site AGAGTACCTTG) | 0
42 | TACACCGCATGGACCGGTTTTCCCGGTAATCCGTATTTGCG (site TGCACCGCTCG) | 0.0236
43 | TAATGGGCATGGACCGGTTTTCCCGGTAATCCGTATTTGGG (site TAATGGGCTCC) | 0.0225
44 | TGGCCGGCATGGACCGGTTTTCCCGGTAATCCGTATTTGGG (site TGGCCGGCTTC) | 0.00405
45 | CCAGGTGCATGGACCGGTTTTCCCGGTAATCCGTATTTGAA (site CCAGGTGCTAT) | 0.00736
46 | AATTAAGCATGGACCGGTTTTCCCGGTAATCCGTATTTGGA (site AATTACGCTTC) | 0.395
47 | ACTAGTGCATGGACCGGTTTTCCCGGTAATCCGTATTTGGA (site ACTAGTGCTTC) | 1.36
48 | GTGAGGTCATGGACCGGTTTTCCCGGTAATCCGTATTTGCT (site GTGAGGTCTAG) | 3.11
49 | GTATGTACATGGACCGGTTTTCCCGGTAATCCGTATTTGAC (site GTATGTACTGT) | 2.9
50 | CGGGAACCATGGACCGGTTTTCCCGGTAATCCGTATTTGAT (site CCGGAACCTAT) | 0

Row | Sequence | recombinant UMI read abundance (log10)
51 | ATCCAAGCATGGACCGGTTTTCCCGGTAATCCGTATTTGAG (site ATCCGAGCTCT) | 0.00838
52 | CACTTTGCATGGACCGGTTTTCCCGGTAATCCGTATTTGGA (site CACTTAGCTTC) | 0.0269
53 | CTCTTGGCATGGACCGGTTTTCCCGGTAATCCGTATTTGAA (site CTCTTGGCTTT) | 1.08
54 | GCCTCCCCATGGACCGGTTTTCCCGGTAATCCGTATTTGGA (site GCCTCCCCTTC) | 0.0286
55 | TGGCCGGCATGGACCGGTTTTCCCGGTAATCCGTATTTGGA (site TGGCCGGCTCC) | 0.0416
56 | ATTGTTCCATGGACCGGTTTTCCCGGTAATCCGTATTTGGT (site GTTGTTCCTAC) | 0.00837
57 | AAGATTCCATGGACCGGTTTTCCCGGTAATCCGTATTTGTA (site AAGATTCCTTA) | 1.3
58 | TAGCCGGCATGGACCGGTTTTCCCGGTAATCCGTATTTGGC (site TCGCCGGCTGC) | 0
59 | TTGTCTACATGGACCGGTTTTCCCGGTAATCCGTATTTGCG (site TTGTCTACTCG) | 0.0108
60 | ACAGTATCATGGACCGGTTTTCCCGGTAATCCGTATTTGGA (site ACAGTATCTTG) | 2.02
61 | GCGAATCCATGGACCGGTTTTCCCGGTAATCCGTATTTGGG (site GCGAAGCCTCC) | 0.23
62 | TTTGCGGCATGGACCGGTTTTCCCGGTAATCCGTATTTGCT (site TTTCCGGCTAG) | 0.0114
63 | GTATTGACATGGACCGGTTTTCCCGGTAATCCGTATTTGTG (site GTATTGACTCA) | 1.4
64 | TGAAGCACATGGACCGGTTTTCCCGGTAATCCGTATTTGCG (site TGAAGCACTCG) | 1.18
65 | TGTTTCCCATGGACCGGTTTTCCCGGTAATCCGTATTTGTA (site TGTTCCCCTTA) | 0.0148
66 | GTCAGTGCATGGACCGGTTTTCCCGGTAATCCGTATTTGCA (site GTCAGTGCTTG) | 2.49
67 | GGCAATCCATGGACCGGTTTTCCCGGTAATCCGTATTTGAC (site GGCAATCCTCT) | 0.00258
68 | TCAGAGACATGGACCGGTTTTCCCGGTAATCCGTATTTGCG (site TCAGAAACTCG) | 1.73
69 | GCTACCGCATGGACCGGTTTTCCCGGTAATCCGTATTTGCC (site GCTACGGCTGG) | 0
70 | TTGCCGGCATGGACCGGTTTTCCCGGTAATCCGTATTTGGC (site TTGCCGGCTGC) | 0
71 | GGGGAGACATGGACCGGTTTTCCCGGTAATCCGTATTTGCC (site GGGGAGACTGG) | 2.07
72 | CGCTTCTCATGGACCGGTTTTCCCGGTAATCCGTATTTGGG (site CTCTTCTCTCC) | 0.0109
73 | CGGACATCATGGACCGGTTTTCCCGGTAATCCGTATTTGCG (site CGGACATCTCG) | 2.25
74 | AGAAATCCATGGACCGGTTTTCCCGGTAATCCGTATTTGTT (site CGGAATCCTAA) | 0.00278
75 | AGCAAGACATGGACCGGTTTTCCCGGTAATCCGTATTTGCA (site AGAAAGACTTG) | 1.86

From the supplement of paper PMC11208160
